Laboratory results reported in patent US20100075965A1, “PI3 KINASE INHIBITORS AND METHODS OF THEIR USE” (Novartis AG, priority 2006, published 2010).

How the values were obtained:
PI3 K Alpha = PI3 K Alpha (Homo sapiens, UniProt P42336); assay: PI3 kinase phosphorylation assays (homogenous solution phase, one step solid phase, ATP depletion/KinaseGlo); type: biochemical; details: read-out: PI3K Alpha IC50
A2780 cells = assay: Viability assay in A2780 (Cell Titer Glo); type: cell-based, human; details: Homo sapiens; A2780 cells; read-out: A2780 Cell prolif. EC50
In short: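 EC50 values come from Cell Titer Glo luminescence after 72 hrs of compound exposure at 37° C, run in duplicate. A2780 cells were plated at 1,000 per well in DMEM with 10% FBS and dosed with 3-fold serial dilutions.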

Sequence of PI3 K Alpha (P42336 whole entry): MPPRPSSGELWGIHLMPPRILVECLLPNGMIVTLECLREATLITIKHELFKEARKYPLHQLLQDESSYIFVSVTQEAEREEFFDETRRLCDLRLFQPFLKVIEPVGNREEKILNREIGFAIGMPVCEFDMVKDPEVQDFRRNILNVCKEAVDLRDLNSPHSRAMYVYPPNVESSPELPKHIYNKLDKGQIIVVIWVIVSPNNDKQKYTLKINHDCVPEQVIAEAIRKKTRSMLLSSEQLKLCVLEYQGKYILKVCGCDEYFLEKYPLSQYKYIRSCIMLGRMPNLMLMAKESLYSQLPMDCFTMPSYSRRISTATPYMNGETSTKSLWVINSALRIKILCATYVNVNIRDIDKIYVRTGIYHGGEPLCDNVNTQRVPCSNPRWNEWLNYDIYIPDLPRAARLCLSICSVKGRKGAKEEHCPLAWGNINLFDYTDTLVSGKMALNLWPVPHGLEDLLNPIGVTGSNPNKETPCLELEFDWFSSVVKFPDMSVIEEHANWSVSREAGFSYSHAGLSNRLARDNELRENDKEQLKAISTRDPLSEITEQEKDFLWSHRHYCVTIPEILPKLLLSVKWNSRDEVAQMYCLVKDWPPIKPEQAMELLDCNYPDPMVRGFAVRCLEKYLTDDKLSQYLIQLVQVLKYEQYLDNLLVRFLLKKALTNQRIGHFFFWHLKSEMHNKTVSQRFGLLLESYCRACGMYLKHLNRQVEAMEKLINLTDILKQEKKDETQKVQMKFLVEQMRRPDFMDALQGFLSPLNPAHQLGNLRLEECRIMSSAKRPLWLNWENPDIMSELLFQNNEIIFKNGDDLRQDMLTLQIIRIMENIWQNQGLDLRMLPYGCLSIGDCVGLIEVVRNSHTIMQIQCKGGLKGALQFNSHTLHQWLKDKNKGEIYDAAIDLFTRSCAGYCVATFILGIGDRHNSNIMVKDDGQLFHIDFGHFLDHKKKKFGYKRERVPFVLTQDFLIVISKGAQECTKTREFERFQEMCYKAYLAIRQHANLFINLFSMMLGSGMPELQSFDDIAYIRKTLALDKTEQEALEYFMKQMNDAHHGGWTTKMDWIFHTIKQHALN
Sequence of PI3 K Alpha (P27986 whole entry partner): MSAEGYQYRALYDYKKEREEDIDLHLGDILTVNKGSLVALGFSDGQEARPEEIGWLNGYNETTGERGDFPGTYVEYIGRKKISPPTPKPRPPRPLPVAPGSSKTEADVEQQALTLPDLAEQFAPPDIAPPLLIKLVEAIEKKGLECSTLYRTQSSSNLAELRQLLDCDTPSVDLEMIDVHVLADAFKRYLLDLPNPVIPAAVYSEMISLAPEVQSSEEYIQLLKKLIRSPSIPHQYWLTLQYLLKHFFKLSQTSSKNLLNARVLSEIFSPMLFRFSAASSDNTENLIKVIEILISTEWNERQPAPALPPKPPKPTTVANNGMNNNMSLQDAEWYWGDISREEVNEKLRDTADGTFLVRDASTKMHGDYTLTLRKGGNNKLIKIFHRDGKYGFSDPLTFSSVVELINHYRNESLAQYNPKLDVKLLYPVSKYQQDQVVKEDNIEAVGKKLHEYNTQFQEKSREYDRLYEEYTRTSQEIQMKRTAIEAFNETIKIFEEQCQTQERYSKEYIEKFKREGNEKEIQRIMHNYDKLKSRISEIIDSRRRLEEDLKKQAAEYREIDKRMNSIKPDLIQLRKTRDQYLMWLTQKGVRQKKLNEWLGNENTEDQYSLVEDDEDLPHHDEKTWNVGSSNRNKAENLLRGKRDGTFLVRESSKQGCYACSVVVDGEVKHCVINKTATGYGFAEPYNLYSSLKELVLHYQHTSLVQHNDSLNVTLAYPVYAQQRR

SMILES | IC50 (PI3 K Alpha) | EC50 (A2780 cells)
CC(=O)Nc1cn2cc(-c3cnc(N)c(/C=N/OC(C)(C)C)c3)ccc2n1 [Example 157, (E)-N-(6-(6-amino-5-((tert-butoxyimino)methyl)pyridin-3-yl)imidazo[1,2-a]pyridin-2-yl)acetamide] | < 1 µM | < 25 µM
CC(C)(C(=O)Nc1cn2cc(-c3cnc(N)c(C(F)(F)F)c3)ccc2n1)c1ccccc1 [Example 44] | < 10 µM | < 25 µM
CC(C)(C)OC(=O)N1CCC[C@H]1C(=O)Nc1cn2nc(-c3cnc(N)c(C(F)(F)F)c3)ccc2n1 [Example 166, (S)-tert-butyl 2-(6-(6-amino-5-(trifluoromethyl)pyridin-3-yl)imidazo[1,2-b]pyridazin-2-ylcarbamoyl) pyrrolidine-1-carboxylate] | < 1 µM | < 25 µM
N#Cc1ccc(C(=O)Nc2cn3cc(-c4cnc(N)c(C(F)(F)F)c4)ccc3n2)cc1 [Example 159, N-(6-(6-amino-5-(trifluoromethyl)pyridin-3-yl)imidazo[1,2-a]pyridin-2-yl)-4-cyanobenzamide] | < 1 µM | < 25 µM
Nc1ncc(-c2ccc3nc(NC(=O)COC4CCNCC4)cn3c2)cc1C(F)(F)F [Example 200, N-(6-(6-amino-5-(trifluoromethyl)pyridin-3-yl)imidazo[1,2-a]pyridin-2-yl)-2-(piperidin-4-yloxy)acetamide] | < 1 µM | < 10 µM
CC(=O)Nc1cn2nc(-c3cnc(N)c(C(=O)NCCN)c3)ccc2n1 [Example 139, 5-(2-acetamido-imidazo[1,2-b]pyridazin-6-yl)-2-amino-N-(2-aminoethyl) nicotinamide] | < 1 µM | < 25 µM
CC(=O)Nc1cn2nc(-c3cnc(N)c(-c4cccc(C(F)(F)F)c4)c3)ccc2n1 [Example 186, N-(6-(6-amino-5-(3-(trifluoromethyl)phenyl)pyridin-3-yl)imidazo[1,2-b]pyridazin-2-yl)acetamide] | < 1 µM | < 10 µM
CC(=O)Nc1cn2cc(-c3cnc(N)c(C(F)(F)F)c3)c(F)cc2n1 [Example 171, N-(6-(6-amino-5-(trifluoromethyl)pyridin-3-yl)-7-fluoroimidazo [1,2-a]pyridin-2-yl)acetamide] | < 1 µM | < 25 µM
Nc1ncc(-c2ccc3nc(NC(=O)C(F)(F)F)cn3c2O)cc1C(F)(F)F [Example 41] | < 10 µM | < 25 µM
CC(=O)N1CCC[C@H]1C(=O)Nc1cn2cc(-c3cnc(N)c(C(F)(F)F)c3)ccc2n1 [Example 172, (S)-1-acetyl-N-(6-(6-amino-5-(trifluoromethyl)pyridin-3-yl)imidazo[1,2-a]pyridin-2-yl)pyrrolidine-2-carboxamide] | < 1 µM | < 25 µM
CC(=O)N1CCC[C@H]1C(=O)Nc1cn2cc(-c3cnc(N)c(Cl)c3)ccc2n1 [Example 182, (S)-1-acetyl-N-(6-(6-amino-5-chloropyridin-3-yl)imidazo[1,2-a]pyridin-2-yl)pyrrolidine-2-carboxamide] | < 1 µM | < 25 µM
CC(=O)Nc1cn2cc(-c3cnc(N)c(C(=O)NCCO)n3)ccc2n1 [Example 147, 6-(2-acetamido-imidazo[1,2-a]pyridin-6-yl)-3-amino-N-(2-hydroxyethyl) pyrazine-2-carboxamide] | < 1 µM | < 25 µM
CCC(=O)Nc1cn2cc(-c3cnc(N)c(OC)n3)ccc2n1 [Example 185, N-(6-(5-amino-6-methoxypyrazin-2-yl)imidazo[1,2-a]pyridin-2-yl)propionamide] | < 1 µM | < 10 µM
CNC(=O)C1CCN(C(=O)Nc2cn3cc(-c4cnc(N)c(C(F)(F)F)c4)ccc3n2)C1 (stereo not drawn) [Example 154, N1-(6-(6-amino-5-(trifluoromethyl)pyridin-3-yl)imidazo[1,2-a]pyridin-2-yl)-N3-methylpyrrolidine-1,3-dicarboxamide] | < 1 µM | < 25 µM
CC(C)(C)OC(=O)NCC(=O)Nc1cn2cc(-c3cnc(N)c(C(F)(F)F)c3)ccc2n1 [Example 203, tert-butyl 2-(6-(6-amino-5-(trifluoromethyl)pyridin-3-yl)imidazo[1,2-a]pyridin-2-ylamino)-2-oxoethylcarbamate] | < 1 µM | < 10 µM
CCN1CC[C@@H](OCC(=O)Nc2cn3cc(-c4cnc(N)c(C(F)(F)F)c4)ccc3n2)C1 [Example 227, (R)-N-(6-(6-amino-5-(trifluoromethyl)pyridin-3-yl)imidazo[1,2-a]pyridin-2-yl)-2-(1-ethylpyrrolidn-3-yloxy)acetamide] | < 1 µM | < 10 µM
Nc1ncc(-c2ccc3nc(NC(=O)C4CNC4)cn3c2)cc1C(F)(F)F [Example 256, N-(6-(6-amino-5-(trifluoromethyl)pyridin-3-yl)imidazo[1,2-a]pyridin-2-yl)azetidine-3-carboxamide] | < 1 µM | < 10 µM
C[C@@H](NC(=O)OC(C)(C)C)C(=O)Nc1cn2nc(-c3cnc(N)c(C(F)(F)F)c3)ccc2n1 [Example 253, (R)-tert-butyl 1-(6-(6-amino-5-(trifluoromethyl)pyridin-3-yl)imidazo[1,2-b]pyridazin-2-ylamino)-1-oxopropan-2-ylcarbamate] | < 1 µM | < 10 µM
CC(=O)Nc1cn2nc(-c3cnc(N)c(C(=O)NCCN4CCCC4)c3)ccc2n1 [Example 211, 5-(2-acetamido-imidazo[1,2-b]pyridazin-6-yl)-2-amino-N-(2-(pyrrolidin-1-yl)ethyl) nicotinamide] | < 1 µM | < 10 µM
CCOC(=O)CC(=O)Nc1cn2cc(-c3cnc(N)c(C(F)(F)F)c3)ccc2n1 [Example 255, ethyl 3-(6-(6-amino-5-(trifluoromethyl)pyridin-3-yl)imidazo[1,2-a]pyridin-2-ylamino)-3-oxopropanoate] | < 1 µM | < 10 µM
Nc1ncc(-c2ccc3nc(NC(=O)Cc4ccccn4)cn3c2)cc1C(F)(F)F [Example 52, N-(6-(6-amino-5-(trifluoromethyl)pyridin-3-yl)imidazo[1,2-a]pyridin-2-yl)-2-(pyridin-2-yl)acetamide] | < 1 µM | < 10 µM
Nc1ncc(-c2ccc3nc(NC(=O)N4CCC(C(=O)O)C4)cn3c2)cc1C(F)(F)F (stereo not drawn) [Example 151] | < 1 µM | < 25 µM
CC(=O)Nc1cn2cc(-c3cnc(N)c(OCC4CCN(C)CC4)n3)ccc2n1 [Example 209, N-(6-(5-amino-6-((1-methylpiperidin-4-yl)methoxy)pyrazin-2-yl)imidazo[1,2-a]pyridin-2-yl)acetamide] | < 1 µM | < 10 µM

The remaining lines, values ahead:

IC50 (PI3 K Alpha) | EC50 (A2780 cells) | SMILES
< 1 µM | < 25 µM | CC(=O)Nc1cn2nc(-c3cnc(N)cc3C(F)(F)F)ccc2n1 [Example 24, N-[6-(6-Amino-4-trifluoromethyl-pyridin-3-yl)-imidazo[1,2-b]pyridazin-2-yl]-acetamide]
< 1 µM | < 25 µM | CC(=O)Nc1cn2cc(-c3cnc(N)cn3)ccc2n1 [Example 161, N-(6-(5-aminopyrazin-2-yl)imidazo[1,2-a]pyridin-2-yl)acetamide]
< 1 µM | < 10 µM | COCCOc1nc(-c2ccc3nc(NC(=O)CN4CCCCC4)cn3c2)cnc1N [Example 202, N-(6-(5-amino-6-(2-methoxyethoxy)pyrazin-2-yl)imidazo[1,2-a]pyridin-2-yl)-2-(piperidin-1-yl)acetamide]
< 1 µM | < 25 µM | CC(=O)Nc1cn2nc(-c3cnc(N)cn3)ccc2n1 [Example 170]
< 1 µM | < 25 µM | CC(=O)Nc1nc2ccc(-c3cnc(N)c(C(F)(F)F)c3)cn2c1-c1cccc(F)c1 [Example 10, N-[6-(6-Amino-5-trifluoromethyl-pyridin-3-yl)-3-(3-fluoro-phenyl)-imidazo[1,2-a]pyridin-2-yl]-acetamide]
< 1 µM | < 10 µM | C/C=C/C(=O)Nc1cn2cc(-c3cnc(N)c(C(F)(F)F)c3)ccc2n1 [Example 252, (E)-N-(6-(6-amino-5-(trifluoromethyl)pyridin-3-yl)imidazo[1,2-a]pyridin-2-yl)but-2-enamide]
< 1 µM | < 10 µM | Nc1ncc(-c2ccc3nc(NC(=O)[C@@H]4CCCCN4Cc4ccccc4)cn3c2)cc1C(F)(F)F [Example 233]
< 1 µM | < 25 µM | CC(=O)Nc1cn2cc(-c3cnc(N)c(-c4ccc(F)cc4)c3)ccc2n1 [Example 183, N-(6-(6-amino-5-(4-fluorophenyl)pyridin-3-yl)imidazo[1,2-a]pyridin-2-yl)acetamide]
< 1 µM | < 10 µM | NC(=O)Nc1cn2cc(-c3cnc(N)c(C(F)(F)F)c3)ccc2n1 [Example 219, 1-(6-(6-amino-5-(trifluoromethyl)pyridin-3-yl)imidazo[1,2-a]pyridin-2-yl)urea]
< 1 µM | < 25 µM | C=Cc1c(NC(C)=O)nc2ccc(-c3cnc(N)c(C(F)(F)F)c3)cn12 [Example 168, N-(6-(6-amino-5-(trifluoromethyl)pyridin-3-yl)-3-vinylimidazo[1,2-a]pyridin-2-yl)acetamide]
< 1 µM | < 10 µM | CN(CC(=O)Nc1cn2nc(-c3cnc(N)c(C(F)(F)F)c3)ccc2n1)C(=O)OC(C)(C)C [Example 237, tert-butyl 2-(6-(6-amino-5-(trifluoromethyl)pyridin-3-yl)imidazo[1,2-b]pyridazin-2-ylamino)-2-oxoethyl(methyl) carbamate]
< 1 µM | < 10 µM | COCCOc1nc(-c2ccc3nc(NC(=O)C4CCN4C(C)=O)cn3c2)cnc1N (stereo not drawn) [Example 249, 1-acetyl-N-(6-(5-amino-6-(2-methoxyethoxy)pyrazin-2-yl)imidazo[1,2-a]pyridin-2-yl)azetidine-2-carboxamide]
< 1 µM | < 25 µM | CC(=O)Nc1cn2cc(-c3cnc(N)c(OC4CNC4)n3)ccc2n1 [Example 149, N-(6-(5-amino-6-(azetidin-3-yloxy)pyrazin-2-yl)imidazo[1,2-a]pyridin-2-yl)acetamide]
